From patent US8080529B2, “Macrolides with anti-inflammatory activity” (Glaxo Group Limited, priority 2005, dated 2011) come the findings set out here.

The structures appear in SMILES notation. Like-named read-outs stand apart in the source and are kept apart here.

Data set [1] deals with A549. In words: Cytotoxicity assay (MTT), A549 cell line. The class given is cell-based. The conditions noted are these: 24 h. The procedure, abridged: (§1)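 Viability was read as MTT-formazan absorbance at 490 nm after 0.5-2 h with reagent. This followed 24 h compound exposure (50 μM, 12.5 μM) at 37° C in RPM medium. Result expressed as OD490 treated over untreated cells ×100.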

Data set [2] has as its system human peripheral blood mononuclear cells (PBMC). In words: Effects on human T-cell proliferation in vitro (3H-thymidine incorporation). Type of data set: cell-based. To be noted: Homo sapiens, PBMC, read-out: Percentage of inhibition of proliferation of stimulated PBMC. Here is the method:
The influence of the various test compounds at two different concentrations (50 μM and 10 μM) on cell proliferation of human peripheral blood mononuclear cells (PBMC) was assessed. […] The cells were pulsed with 1 μCi of ^3H-thymidine (Amersham, USA) per well during the last 18 h of the culture, and were harvested on the 96-well filter (Packard Bioscience, USA) using a multiple cell harvester (Packard, USA). The incorporation of ^3H-thymidine in activated cells were measured using TopCount NXT (Packard, USA). […] The positive control refers to LPS-, PMA- or zymosan-stimulated samples that were not treated with test compounds.

Data set [3] relates to TNF-α. In words: Lipopolysaccharide induced TNF-α production in Balb/cJ mice. The class given is in vivo. The conditions noted are these: Mus musculus, ip, 1.5 h, read-out: % inhibition of TNF-α production (plasma). The procedure: Male Balb/cJ mice (Iffa Credo, France) weighing 25-33 g were randomly grouped (n=7 in test group, 7 in positive control group, 4 in negative control group). Test compounds, as well as vehicle [0.125% carboxymethyl-cellulose (Sigma, USA)], were administered to the mice intraperitoneally. Test compounds were administered at a dose of 10 mg/kg of body weight, in a volume of 10 mL/kg of body weight. Thirty minutes later, a sterile solution of lipopolysaccharide (LPS) (Sigma, USA) in saline was intraperitoneally administered at a concentration and volume of 25 μg/0.2 mL/mouse to each animal, except those in negative control. Ninety minutes following administration, all animals were sacrificed by puncturing a. carotis communis. The plasma concentration of TNF-α was determined by sandwich ELISA, using capture and detection antibodies (R&D, USA) according to manufacturer's recommendations. Results are presented in the following table as percent of inhibition of TNF-α production in comparison to the positive control (stimulated, but untreated animals).

In data set [4] the test system is Hep G2. In words: Cytotoxicity assay (MTT), Hep G2 cell line. To be noted: 24 h. Type of data set: cell-based. The procedure, abridged: as §1
Data set [5] deals with IL-8. The data set is described as follows: Inhibition of IL-8 production by stimulated human peripheral blood leukocytes in vitro. Type of data set: cell-based. The conditions noted are these: Homo sapiens, Leukocyte, read-out: Percentage of inhibition of IL-8 production. The procedure, abridged: (§2)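 Cytokines in supernatants measured by sandwich ELISA after overnight stimulation (2 μg/mL LPS, 1 μg/mL PMA or 120 μg/mL zymosan) of healthy-donor leukocytes pretreated 2 h with 10 or 50 μM compound. Percent inhibition calculated relative to stimulated cells lacking compound.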

Data set [6] has as its system IL-1α. The data set is described as follows: Inhibition of IL-1 production by stimulated human peripheral blood leukocytes in vitro. Type of data set: cell-based. To be noted: Homo sapiens, Leukocyte, read-out: Percentage of inhibition of IL-1α production.
The test system of data set [7] is TNF-α. In words: Inhibition of TNF-α production by stimulated human peripheral blood leukocytes in vitro. The class given is cell-based. To be noted: Homo sapiens, Leukocyte, read-out: Percentage of inhibition of TNF-α production. The procedure, abridged: as §2
The subject of data set [8] is IL-6. In words: Inhibition of IL-6 production by stimulated human peripheral blood leukocytes in vitro. The class given is cell-based. To be noted: Homo sapiens, Leukocyte, read-out: Percentage of inhibition of IL-6 production. The procedure, abridged: as §2
[9] abbreviates: 10 mg/kg intraperitoneally, 30 min before LPS, 90 min after LPS.

Regarding `CC[C@H]1OC(=O)[C@H](C)[C@@H](O[C@H]2C[C@@](C)(OC)[C@@H](OC(=O)CCN(CC)CC)[C@H](C)O2)[C@H](C)[C@@H](O[C@@H]2O[C@H](C)C[C@H](N(C)C)[C@H]2O)[C@](C)(O)C[C@@H](C)NC(=O)[C@H](C)[C@@H](O)[C@]1(C)O` [Example 2, 4″-O-(3-Diethylamino-propionyl)-8a-aza-8a-homoerythromycin A], the “Percentage of inhibition of cell growth” value in data set [1] (12.5 μM) was 0%; in data set [1] (50 μM), 3%; in data set [4] (12.5 μM), 0%; in data set [4] (50 μM) it was 1%. For the same compound, the inhibition at 10 µM in data set [2] (PHA) was 35%; in data set [2] (PMA + iono.) it was 1%. The values for the inhibition at 50 µM in data set [2] (PHA) and in data set [2] (PMA + iono.) were 41% and 31%, respectively. In addition, the inhibition in vivo at 10 mg/kg in data set [3] (setting [9]) came out at 59%.

On to `CC[C@H]1OC(=O)[C@H](C)[C@@H](O[C@H]2C[C@@](C)(OC)[C@@H](OC(=O)CCN(CC)CC)[C@H](C)O2)[C@H](C)[C@@H](O[C@@H]2O[C@H](C)C[C@H](N(C)C)[C@H]2O)[C@](C)(OC)C[C@@H](C)C(=O)[C@H](C)[C@H]2N(C)C(=O)O[C@]12C` [Example 10, 11,12-(N-Methyl-carbamate)-11,12-dideoxy-4-O-(3-diethylaminopropionyl)-6-O-methyl-erythromycin A], for which the “Percentage of inhibition of cell growth” value in data set [1] (12.5 μM) was 12%; in data set [1] (50 μM), 6%; in data set [4] (12.5 μM), 0%; in data set [4] (50 μM), 5%. In addition, the inhibition at 10 µM in data set [2] (PHA) was found to be 71%; in data set [2] (PMA + iono.), 3%; in data set [5] (LPS-stimulated PBL) it was 27%; in data set [5] (PMA-stimulated PBL) it was 0%; in data set [5] (zymosan-stimulated PBL), 28%; in data set [6] (LPS-stimulated PBL), 44%. In addition, the inhibition at 10 µM in data set [6] (PMA-stimulated PBL) was 30%; in data set [6] (zymosan-stimulated PBL) it was 48%; in data set [7] (LPS-stimulated PBL), 49%; in data set [7] (PMA-stimulated PBL) it was 41%; in data set [7] (zymosan-stimulated PBL) it was 14%; in data set [8] (LPS-stimulated PBL) it was 14%. The inhibition at 10 µM was found to be 12% in data set [8] (PMA-stimulated PBL) and 19% in data set [8] (zymosan-stimulated PBL). The inhibition at 50 µM in data set [2] (PHA) was 98%; in data set [2] (PMA + iono.) it was 100%; in data set [5] (LPS-stimulated PBL) it was 52%; in data set [5] (PMA-stimulated PBL), 42%; in data set [5] (zymosan-stimulated PBL), 36%; in data set [6] (LPS-stimulated PBL) it was 41%. The inhibition at 50 µM came to 0% in data set [6] (PMA-stimulated PBL); 49% in data set [6] (zymosan-stimulated PBL); 86% in data set [7] (LPS-stimulated PBL); 62% in data set [7] (PMA-stimulated PBL); 72% in data set [7] (zymosan-stimulated PBL); 71% in data set [8] (LPS-stimulated PBL). For the same compound, the inhibition at 50 µM stood at 18% in data set [8] (PMA-stimulated PBL) and 39% in data set [8] (zymosan-stimulated PBL).

As for `CC[C@H]1OC(=O)[C@H](C)[C@@H](O[C@H]2C[C@@](C)(OC)[C@@H](OC(=O)CCN3CCN(CCN(CC)CC)CC3)[C@H](C)O2)[C@H](C)[C@@H](O[C@@H]2O[C@H](C)C[C@H](N(C)C)[C@H]2O)[C@](C)(OC)C[C@@H](C)C(=O)N[C@H](C)[C@@H](O)[C@]1(C)O` [Example 14], the “Percentage of inhibition of cell growth” value in data set [1] (12.5 μM) is reported as 4%; in data set [1] (50 μM), 0%; in data set [4] (12.5 μM), 0%; in data set [4] (50 μM), 0%. The inhibition at 10 µM in data set [2] (PHA) was found to be 23%; in data set [2] (PMA + iono.) it was 24%. Moreover, the inhibition at 50 µM in data set [2] (PHA) amounted to 99%; in data set [2] (PMA + iono.) it was 91%. Moreover, the inhibition in vivo at 10 mg/kg in data set [3] (setting [9]) is 96%.

As to `C=CC(=O)OC1[C@H](C)O[C@@H](O[C@H]2[C@H](C)[C@@H](O[C@@H]3O[C@H](C)C[C@H](NC)[C@H]3O)[C@](C)(OC)C[C@@H](C)C(=O)N[C@H](C)[C@@H](O)[C@](C)(O)[C@@H](CC)OC(=O)[C@@H]2C)C[C@@]1(C)OC` (some centres unmarked) [Example 53, 3′-N-Demethyl-4″-O-acryloyl-6-O-methyl-9a-aza-9a-homoerythromycin A], the “Percentage of inhibition of cell growth” value in data set [1] (12.5 μM) is 9%; in data set [1] (50 μM), 12%; in data set [4] (12.5 μM), 0%; in data set [4] (50 μM), 2%. Further, the inhibition at 10 µM turned out to be 9% in data set [5] (LPS-stimulated PBL); 30% in data set [5] (PMA-stimulated PBL); 19% in data set [5] (zymosan-stimulated PBL); 83% in data set [6] (LPS-stimulated PBL); 92% in data set [6] (PMA-stimulated PBL); 92% in data set [6] (zymosan-stimulated PBL). Moreover, the inhibition at 10 µM in data set [7] (LPS-stimulated PBL) was 28%; in data set [7] (PMA-stimulated PBL), 82%; in data set [7] (zymosan-stimulated PBL) it was 64%; in data set [8] (LPS-stimulated PBL), 20%; in data set [8] (PMA-stimulated PBL) it was 66%; in data set [8] (zymosan-stimulated PBL), 68%. Further, the inhibition at 50 µM turned out to be 100% in data set [5] (LPS-stimulated PBL); 63% in data set [5] (PMA-stimulated PBL); 92% in data set [5] (zymosan-stimulated PBL); 95% in data set [6] (LPS-stimulated PBL); 99% in data set [6] (PMA-stimulated PBL); 100% in data set [6] (zymosan-stimulated PBL). The inhibition at 50 µM worked out at 100% in data set [7] (LPS-stimulated PBL); 100% in data set [7] (PMA-stimulated PBL); 100% in data set [7] (zymosan-stimulated PBL); 99% in data set [8] (LPS-stimulated PBL); 95% in data set [8] (PMA-stimulated PBL); 100% in data set [8] (zymosan-stimulated PBL).

As to `CC[C@H]1OC(=O)[C@H](C)[C@@H](O[C@H]2C[C@@](C)(OC)[C@@H](OCCCN(CC)CC)[C@H](C)O2)[C@H](C)[C@@H](O[C@@H]2O[C@H](C)C[C@H](N(C)C)[C@H]2O)[C@](C)(OC)C[C@@H](C)C(=O)N[C@H](C)[C@@H](O)[C@]1(C)O` [Example 73, 4″-O-(3-Diethylaminopropyl)-6-O-methyl-9a-aza-9a-homoerythromycin A], the “Percentage of inhibition of cell growth” value in data set [1] (12.5 μM), in data set [1] (50 μM), in data set [4] (12.5 μM) and in data set [4] (50 μM) was 0% in each case. The inhibition in vivo at 10 mg/kg in data set [3] was determined as 90%.
